Values of other authors in US20210251893A1, “Compositions and Methods for Treating Ocular Diseases” (Ocular Therapeutix, Inc., priority 2020, published 2021).
One block for each compound: values may come before it.

Experiments:
FP prostanoid receptor = FP prostanoid receptor (Homo sapiens, UniProt P43088)
Sequence of FP prostanoid receptor (P43088 whole entry): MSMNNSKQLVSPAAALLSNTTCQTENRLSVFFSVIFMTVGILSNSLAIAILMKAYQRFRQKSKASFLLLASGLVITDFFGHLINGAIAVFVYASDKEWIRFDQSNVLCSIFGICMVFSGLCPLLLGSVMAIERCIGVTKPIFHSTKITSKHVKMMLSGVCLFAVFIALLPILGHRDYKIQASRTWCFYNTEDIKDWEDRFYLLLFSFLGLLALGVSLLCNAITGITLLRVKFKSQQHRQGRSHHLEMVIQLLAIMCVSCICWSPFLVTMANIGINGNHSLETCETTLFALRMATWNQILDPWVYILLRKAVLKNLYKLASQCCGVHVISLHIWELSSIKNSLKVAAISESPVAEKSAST

Solubility in aqueous solutions: relatively low solubility
SMILES: CC(C)OC(=O)CCC/C=C\C[C@@H]1[C@@H](CC[C@@H](O)CCc2ccccc2)[C@H](O)C[C@@H]1O [Latanoprost]

SMILES: CC(C)OC(=O)CCC/C=C\C[C@@H]1[C@@H](/C=C/[C@@H](O)COc2cccc(C(F)(F)F)c2)[C@H](O)C[C@@H]1O [Travoprost]
Affinity for the prostaglandin FP receptor (FP prostanoid receptor): high affinity

SMILES: O=C(O)CCC/C=C\C[C@@H]1[C@@H](/C=C/[C@@H](O)COc2cccc(C(F)(F)F)c2)[C@H](O)C[C@@H]1O [free acid of travoprost]
Potency and selectivity for the FP prostanoid receptor (FP prostanoid receptor; compared to latanoprost): higher potency and greater selectivity
